This is an account of results in patent US9737545B2 (MERCK SHARP & DOHME CORP., priority 2013, dated 2017).

The structures appear in SMILES notation.

By IC50 is commonly meant the concentration that gives 50% inhibition. The low end stands for inhibition by little substance, the high end for a need for much substance.

The subject of one assay is HIV-1 (H9IIIB strain). As to the kind of experiment: Antiviral Assays in Cell Culture (Spread), acute infection assay. It is filed as cell-based. As to conditions: Human immunodeficiency virus 1, T-lymphoid, read-out: Viking 50% (nM). The source says:
Antiviral Assays in Cell Culture (“Spread”)
Acute Infection Assay (“Spread”) data were generated using HIV-1 (H9IIIB strain) infection of MT-4 human T-lymphoid cells in 10% FBS, and according to the methods disclosed by J. P. Vacca et al, “L-735,524: An orally bioavailable human immunodeficiency virus type 1 protease inhibitor,” Proc. Natl. Acad. Sci. USA, Vol. 91, pp. 4096-4100 (April 1994).

The target in another assay is T1, wildtype HIV-1 protease (Human immunodeficiency virus type 1 group M subtype B, UniProt P04585).
T1 construct: preincubated with the HIV-1 protease (wild type) enzyme in assay buffer; made in house; host or cells: Escherichia coli
As to the kind of experiment: Assay for Inhibition of Microbial Expressed HIV Protease (Pepcleav). It is filed as biochemical. Summed up: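 E. coli-expressed wildtype protease (20 pM final) preincubated with inhibitor 30 min at room temperature in 50 mM sodium acetate pH 5.5, 100 mM NaCl, 0.1% BSA. Reaction with 400 μM peptide substrate ran 1 h at 30° C. Inhibition derived from LC-MS/MS (MRM) product peak area.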

Turning to `Cc1cc2nc([C@@H]3CO[C@H](CCc4c(F)cncc4NC(=O)C[C@@H](c4ccc(F)cc4)c4ccncc4F)CN3)[nH]c2cc1C` [Example 63, (3S)—N-(4-{2-[(2R,5R)-5-(5,6-dimethyl-1H-benzimidazol-2-yl)morpholin-2-yl]ethyl}-5-fluoropyridin-3-yl)-3-(4-fluorophenyl)-3-(3-fluoropyridin-4-yl)propanamide], the EC50 with HIV-1 (H9IIIB strain) was found to be 63 nM.

Consider `Cc1cc2nc([C@@H]3CO[C@H](CCc4c(F)cncc4NC(=O)C[C@@H](c4ccc(F)cc4)c4cc(F)cc(F)c4)CN3)[nH]c2cc1C` [Example 64, (3S)-3-(3,5-difluorophenyl)-N-(4-{2-[(2R,5R)-5-(5,6-dimethyl-1H-benzimidazol-2-yl)morpholin-2-yl]ethyl}-5-fluoropyridin-3-yl)-3-(4-fluorophenyl)propanamide], for which the EC50 with HIV-1 (H9IIIB strain) stood at 16 nM.

As for `O=C(C[C@@H](c1ccc(F)cc1)c1cc(F)cc(F)c1)Nc1cncc(F)c1CC[C@@H]1CN[C@H](c2nc3ccc(Cl)cc3[nH]2)CO1` [Example 65, (3S)—N-(4-{2-[(2R,5R)-5-(6-chloro-1H-benzimidazol-2-yl)morpholin-2-yl]ethyl}-5-fluoropyridin-3-yl)-3-(3,5-difluorophenyl)-3-(4-fluorophenyl)propanamide], in the assay with HIV-1 (H9IIIB strain), the EC50 is 13 nM.

Regarding `COC(=O)N[C@H](C(=O)Nc1ccccc1CC[C@@H]1CN[C@H](c2ncc[nH]2)[C@@H](CSc2nnc(-c3ccncc3)o2)O1)C(c1ccccc1)c1ccccc1` [Example 87, N-(2-{2-[(2R,5R)-(1H-imidazol-2-yl)-6-{[(5-pyridin 4-yl-1,3,4-oxadiazol-2-yl)sulfanyl]methyl}morpholin-2-yl]ethyl}phenyl)-Nalpha-(methoxycarbonyl)-β-phenyl-L-phenylalaninamide], half-maximal inhibition on wildtype HIV-1 protease (IC50) required 0.6 nM.

`COC(=O)N[C@H](C(=O)Nc1ccccc1CC[C@@H]1CN[C@H](c2cn(C)c(=O)[nH]2)CO1)C(c1ccccc1)c1ccccc1` [Example 88] came in with an IC50 against wildtype HIV-1 protease of 310 nM.

`COC(=O)N[C@H](C(=O)Nc1ccccc1CC[C@@H]1CN[C@H](c2nc3ccc(O)nc3[nH]2)CO1)C(c1ccccc1)c1ccccc1` [Example 89] yielded an IC50 against wildtype HIV-1 protease of 150 nM.

Consider `COC(=O)N[C@H](C(=O)Nc1ccccc1CC[C@@H]1CN[C@H](c2[nH]c3ccccc3c2C=[N+](C)C)CO1)C(c1ccccc1)c1ccccc1` [Example 90, N-[(2-{(3R,6R)-6-[2-(2-{[N-(methoxycarbonyl)-β-phenyl-L-phenylalanyl]amino}phenyl)ethyl]morpholin-3-yl}-1H-indol-3-yl)methylidene]-N-methylmethanaminium], for which half-maximal inhibition on wildtype HIV-1 protease (IC50) required 68 nM.

As to `Cc1cc2nc([C@@H]3CO[C@H](CCc4c(F)cncc4NC(=O)[C@@H](N)C(c4ccc(F)cc4)c4ccc(F)cc4)CN3)[nH]c2cc1C` [Example 92, N-(4-{2-[(2R,5R)-5-(5,6-dimethyl-1H-benzimidazol 2-yl)morpholin-2-yl]ethyl}-5-fluoropyridin-3-yl)-4-fluoro-β-(4-fluorophenyl)-L-phenylalaninamide], the IC50 against wildtype HIV-1 protease amounted to 0.06 nM.

Regarding `N[C@H](C(=O)Nc1cncc(F)c1CC[C@@H]1CN[C@H](c2nc3cc(F)c(F)cc3[nH]2)CO1)C(c1ccc(F)cc1)c1ccc(F)cc1` [Example 93, N-(4-{2-[(2R,5R)-5-(5,6-difluoro-1H-benzimidazol-2-yl)morpholin-2-yl]ethyl}-5-fluoropyridin-3-yl)-4-fluoro-β-(4-fluorophenyl)-L-phenylalaninamide], the IC50 on wildtype HIV-1 protease came to 0.02 nM.

`N[C@H](C(=O)Nc1cccc(F)c1OC[C@@H]1CN[C@H](c2nc3ccccc3[nH]2)CO1)C(c1ccccc1)c1ccccc1` [Example 94, N-(2-{[(2S,5R)-5-(1H-benzimidazol-2-yl)morpholin-2-yl]methoxy}-3-fluorophenyl)-β-phenyl-L-phenylalaninamide] came in with a 50% inhibitory concentration (IC50) at wildtype HIV-1 protease of 0.22 nM.

Regarding `COC(=O)N[C@H](C(=O)Nc1cncc(F)c1CC[C@@H]1CN[C@H](c2nc3cc(C)c(C)cc3[nH]2)CO1)C(c1ccc(F)cc1)c1ccc(F)cc1` [Example 95, N-(4-{2-[(2R,5R)-5-(5,6-dimethyl-1H-benzimidazol-2-yl)morpholin-2-yl]ethyl}-5-fluoropyridin-3-yl)-4-fluoro-β-(4-fluorophenyl)-Nalpha-(methoxycarbonyl)-L-phenylalaninamide], half-maximal inhibition on wildtype HIV-1 protease (IC50) required 0.03 nM.

In turn, `O=C(CC(c1ccc(F)cc1)c1ccc(F)cc1)Nc1cccc(F)c1CC[C@@H]1CN[C@H](c2nc3ccccc3[nH]2)CO1` [Example 97, N-(2-{2-[(2R,5R)-5-(1H-benzimidazol-2-yl)morpholin-2-yl]ethyl}-3-fluorophenyl)-3,3-bis(4-fluorophenyl) propanamide] displayed an IC50 against wildtype HIV-1 protease of 0.04 nM.

`O=C(C[C@@H](c1ccc(F)cc1)c1ccc(F)cc1F)Nc1cccc(F)c1CC[C@@H]1CN[C@H](c2nc3ccccc3[nH]2)CO1` [Example 98, (3S)-N-(2-{2-[(2R,5R)-5-(1H-benzimidazol-2-yl)morpholin-2-yl]ethyl}-3-fluorophenyl)-3-(2,4-difluorophenyl)-3-(4-fluorophenyl) propanamide] gave an IC50 against wildtype HIV-1 protease of 0.05 nM.

Compound `O=C(CCc1ccccc1Cl)Nc1cccc(F)c1CC[C@@H]1CN[C@H](c2nc3ccccc3[nH]2)CO1` [Example 99, N-(2-{2-[(2R,5R)-5-(1H-benzimidazol-2-yl)morpholin-2-yl]ethyl}-3-fluorophenyl)-3-(2-chlorophenyl) propanamide] yielded an IC50 against wildtype HIV-1 protease of 11 nM.

`O=C(CC(c1ccccc1)c1ccccc1)Nc1cccc(F)c1CC[C@@H]1CN[C@H](c2nc3ccccc3[nH]2)CO1` [Example 100, N-(2-{2-[(2R,5R)-5-(1H-benzimidazol-2-yl)morpholin-2-yl]ethyl}-3-fluorophenyl)-3,3-diphenylpropanamide] gave an IC50 on wildtype HIV-1 protease of 0.65 nM.

On wildtype HIV-1 protease, `N[C@H](C(=O)Nc1cncc(F)c1CC[C@@H]1CN[C@H](c2nc3cc(C(=O)NCC(F)(F)F)ccc3[nH]2)CO1)C(c1ccccc1)c1ccccc1` [Example 101, N-(5-fluoro-4-{2-[(2R,5R)-5-{5-[(2,2,2-trifluoroethyl)carbamoyl]-1H-benzimidazol-2-yl}morpholin-2-yl]ethyl}pyridin-3-yl)-β-phenyl-L-phenylalaninamide] showed an IC50 of 26 nM.

As for `N[C@@H](Cc1ccccc1Cl)C(=O)Nc1cccc(F)c1CC[C@@H]1CN[C@H](c2nc3ccccc3[nH]2)CO1` [Example 102, N-(2-{2-[(2R,5R)-5-(1H-benzimidazol-2-yl)morpholin-2-yl]ethyl}-3-fluorophenyl)-2-chloro-L-phenylalaninamide], the IC50 against wildtype HIV-1 protease was determined as 17 nM.

For the compound `O=C(COc1ccccc1Cl)Nc1cccc(F)c1CC[C@@H]1CN[C@H](c2nc3ccccc3[nH]2)CO1` [Example 103, N-(2-{2-[(2R,5R)-5-(1H-benzimidazol-2-yl)morpholin-2-yl]ethyl}-3-fluorophenyl)-2-(2-chlorophenoxy) acetamide], at wildtype HIV-1 protease, the IC50 worked out at 31 nM.

At wildtype HIV-1 protease, `Cc1cc2nc([C@@H]3CO[C@H](COc4c(F)cccc4NC(=O)C[C@@H](c4ccc(F)cc4)c4cc(F)cc(F)c4)CN3)[nH]c2cc1C` [Example 104, (3S)-3-(3,5-difluorophenyl)-N-(2-{[(2S,5R)-5-(5,6-dimethyl-1H-benzimidazol-2-yl)morpholin-2-yl]methoxy}-3-fluorophenyl)-3-(4-fluorophenyl) propanamide] showed an IC50 of 1.1 nM.
